These results are taken from patent EP1724268A1, “COMPOUND HAVING TGF-BETA INHIBITORY ACTIVITY AND PHARMACEUTICAL COMPOSITION CONTAINING SAME” (KIRIN BEER KABUSHIKI KAISHA, priority 2004, dated 2005).

The subject of the assay is TGFβ signal. The assay is described as follows: TGFβ signal inhibitory activity, (SBE)4-Luc reporter in A549 cells (Test Examples 1A and 1B). The class given is cell-based, human. Particulars: Homo sapiens. In short, it runs like this:
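Stable A549 line carrying (SBE)4-Luc Smad3-binding reporter treated with compound plus TGFβ-1 (2 ng/ml) for 4 hr; luciferase read by chemiluminescence. Percent inhibition relative to TGFβ-only and untreated cells, tested at 3 µM and 10 µM, some also at 1 µM.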

The mark [1] stands for this setting: A549, compounds of Reference Examples (Test Example 1B), read-out: TGFβ inhibition rate, %.
Setting [2] is: A549, 10 µM, compounds of Reference Examples (Test Example 1B), read-out: TGFβ inhibition rate, %.

Read-outs that look alike come from different tables or passages of the source.

For the compound `COc1cc2c(Oc3cc(C)c(C)nc3-c3cccnc3)ccnc2cc1OCC1CO1` (stereo not shown) [Compound r348], the inhibition at 3 µM under setting [1] was found to be 76%.

With `COc1cc2c(Oc3cc(C)c(C)nc3-c3cccnc3)ccnc2cc1OCC(O)CO` (stereo not shown) [Compound r349], under setting [1], the inhibition at 3 µM was found to be 96%.

`COc1cc2c(Oc3cc(C)c(C)nc3-c3cccnc3)ccnc2cc1OCC(CO)CO` [Compound r350]: the inhibition at 3 µM under setting [1] was 96%.

In the case of `COc1cc2c(Oc3cc4ccccc4nc3C)ccnc2cc1OCc1ccccc1` [Compound r351, 7-Benzyloxy-6-methoxy-4-(2-methyl-quinolin-3-yloxy)-quinoline], under setting [1], the inhibition at 3 µM worked out at 42%. Under setting [2], the inhibition at 10 µM was determined as 90%.

Turning to `COc1cc2c(Oc3cc4ccccc4nc3C)ccnc2cc1O` [Compound r352, 6-Methoxy-4-(2-methyl-quinolin-3-yloxy)-quinolin-7-ol], the inhibition at 3 µM under setting [1] came out at 14%. Under setting [2], the inhibition at 10 µM is 68%.

For the compound `COc1cc2c(Oc3cc4ccccc4nc3C)ccnc2cc1OCCCl` [Compound r353], under setting [1], the inhibition at 3 µM turned out to be 54%. For the same compound, the inhibition at 10 µM under setting [2] is 86%.

Take `COc1cc2c(Oc3cc4ccccc4nc3C)ccnc2cc1OCCN` [Compound r354]: the inhibition at 3 µM under setting [1] stood at 100%. Moreover, under setting [2], the inhibition at 10 µM turned out to be 100%.

Regarding `COc1cc2c(Oc3cc4ccccc4nc3C)ccnc2cc1OCCN(C)C` [Compound r355], the inhibition at 3 µM under setting [1] was 100%. The inhibition at 10 µM under setting [2] amounted to 100%.

On to `COc1cc2c(Oc3cc4ccccc4nc3C)ccnc2cc1OCCNC(=N)N` [Compound r356], for which the inhibition at 3 µM under setting [1] is -2%. The inhibition at 10 µM under setting [2] came to 54%.

Consider `COc1cc2c(Oc3cc4ccccc4nc3C)ccnc2cc1OCCNC(=O)CC(C)(C)CC(=O)O` [Compound r357], for which, under setting [1], the inhibition at 3 µM was 27%. Besides, under setting [2], the inhibition at 10 µM is 60%.

On to `COc1cc2c(Oc3cc4ccccc4nc3C)ccnc2cc1OCCN1CCCCC1` [Compound r358], for which, under setting [1], the inhibition at 3 µM was 100%. Also, the inhibition at 10 µM under setting [2] came out at 100%.

Consider `COc1cc2c(Oc3cc4ccccc4nc3C)ccnc2cc1OCCN1CCCC(CO)C1` (stereo not shown) [Compound r359], for which the inhibition at 3 µM under setting [1] stood at 100%. Also, the inhibition at 10 µM under setting [2] was determined as 100%.

With `COc1cc2c(Oc3cc4ccccc4nc3C)ccnc2cc1OCCN1CCCC(C(N)=O)C1` (stereo not shown) [Compound r360], under setting [1], the inhibition at 3 µM came out at 100%. Also, the inhibition at 10 µM under setting [2] was 100%.

`CCOC(=O)C1CCCN(CCOc2cc3nccc(Oc4cc5ccccc5nc4C)c3cc2OC)C1` (stereo not shown) [Compound r361]: the inhibition at 3 µM under setting [1] came to 96%. Moreover, the inhibition at 10 µM under setting [2] amounted to 100%.

`COc1cc2c(Oc3cc4ccccc4nc3C)ccnc2cc1OCCN1CCC(C(N)=O)CC1` [Compound r362]: the inhibition at 3 µM under setting [1] was found to be 100%. For the same compound, the inhibition at 10 µM under setting [2] is 100%.

In the case of `CCOC(=O)C1CCN(CCOc2cc3nccc(Oc4cc5ccccc5nc4C)c3cc2OC)CC1` [Compound r363], the inhibition at 3 µM under setting [1] was 100%. Besides, under setting [2], the inhibition at 10 µM was 100%.

On to `COc1cc2c(Oc3cc4ccccc4nc3C)ccnc2cc1OCCN1CCC(O)CC1` [Compound r364], for which the inhibition at 3 µM under setting [1] came to 100%. The inhibition at 10 µM under setting [2] turned out to be 100%.

For `COc1cc2c(Oc3cc4ccccc4nc3C)ccnc2cc1OCCN1CCOCC1` [Compound r366], under “A549, read-out: TGFβ inhibition rate, %”, the inhibition at 10 µM is 100%.

On to `COc1cc2c(Oc3cc4ccccc4nc3C)ccnc2cc1OCCN1C(=O)c2ccccc2C1=O` [Compound r367], for which, under setting [1], the inhibition at 3 µM was 95%. Moreover, the inhibition at 10 µM under setting [2] turned out to be 98%.

For `COc1cc2c(Oc3cc4ccccc4nc3C)ccnc2cc1OCCn1ccnc1` [Compound r368], under setting [1], the inhibition at 3 µM was determined as 100%. In addition, the inhibition at 10 µM under setting [2] was 100%.

On to `COc1cc2c(Oc3cc4ccccc4nc3C)ccnc2cc1OCCO` [Compound r369], for which the inhibition at 3 µM under setting [1] was determined as 99%. Also, the inhibition at 10 µM under setting [2] is 100%.

For `COc1cc2c(Oc3cc4ccccc4nc3C)ccnc2cc1OCC(N)=O` [Compound r370], the inhibition at 3 µM under setting [1] came out at 85%. For the same compound, under setting [2], the inhibition at 10 µM amounted to 99%.

As to `COC(=O)COc1cc2nccc(Oc3cc4ccccc4nc3C)c2cc1OC` [Compound r371], under setting [1], the inhibition at 3 µM is 28%. Further, the inhibition at 10 µM under setting [2] is 90%.

With `CCOC(=O)COc1cc2nccc(Oc3cc4ccccc4nc3C)c2cc1OC` [Compound r372], the inhibition at 3 µM under setting [1] came to 14%. Besides, the inhibition at 10 µM under setting [2] came out at 93%.

Regarding `CCOC(=O)C(Oc1cc2nccc(Oc3cc4ccccc4nc3C)c2cc1OC)C(=O)OCC` [Compound r373], the inhibition at 3 µM under setting [1] was 48%. Also, the inhibition at 10 µM under setting [2] came to 86%.

For `COc1cc2c(Oc3cc4ccccc4nc3C)ccnc2cc1OC(CO)CO` [Compound r374], under setting [1], the inhibition at 3 µM came to 26%. The inhibition at 10 µM under setting [2] was determined as 79%.

Turning to `COc1cc2c(Oc3cc4ccccc4nc3C)ccnc2cc1OCCCCl` [Compound r375], the inhibition at 3 µM under setting [1] amounted to 84%. For the same compound, the inhibition at 10 µM under setting [2] was determined as 100%.

Take `COc1cc2c(Oc3cc4ccccc4nc3C)ccnc2cc1OCCCN` [Compound r376]: under setting [1], the inhibition at 3 µM was 100%. In addition, the inhibition at 10 µM under setting [2] came to 100%.

On to `COc1cc2c(Oc3cc4ccccc4nc3C)ccnc2cc1OCCCNC(=N)N` [Compound r377], for which, under setting [1], the inhibition at 3 µM worked out at 93%. In addition, the inhibition at 10 µM under setting [2] was determined as 100%.

For `COc1cc2c(Oc3cc4ccccc4nc3C)ccnc2cc1OCCCN1CCCCC1` [Compound r378], the inhibition at 3 µM under setting [1] was determined as 100%. For the same compound, under setting [2], the inhibition at 10 µM was 100%.

In the case of `COc1cc2c(Oc3cc4ccccc4nc3C)ccnc2cc1OCCCN1CCOCC1` [Compound r379], under setting [1], the inhibition at 3 µM was determined as 100%. For the same compound, the inhibition at 10 µM under setting [2] turned out to be 100%.

For the compound `COc1cc2c(Oc3cc4ccccc4nc3C)ccnc2cc1OCCCN1C(=O)c2ccccc2C1=O` [Compound r380], the inhibition at 3 µM under setting [1] is 50%. Under setting [2], the inhibition at 10 µM is 89%.

For `COc1cc2c(Oc3cc4ccccc4nc3C)ccnc2cc1OCCCn1ccnc1` [Compound r381], the inhibition at 3 µM under setting [1] is 100%. Also, the inhibition at 10 µM under setting [2] came to 100%.

As for `COc1cc2c(Oc3cc4ccccc4nc3C)ccnc2cc1OCCCO` [Compound r382], under setting [1], the inhibition at 3 µM amounted to 100%. The inhibition at 10 µM under setting [2] is 100%.

Take `COc1cc2c(Oc3cc4ccccc4nc3C)ccnc2cc1OCC1CO1` (stereo not shown) [Compound r383, 6-Methoxy-4-(2-methyl-quinolin-3-yloxy)-7-oxilanyl methoxy-quinoline]: the inhibition at 3 µM under setting [1] was 97%. Also, under setting [2], the inhibition at 10 µM worked out at 100%.

For `COc1cc2c(Oc3cc4ccccc4nc3C)ccnc2cc1OC[C@@H](O)CO` [Compound r385], under setting [1], the inhibition at 3 µM is 100%. Also, the inhibition at 10 µM under setting [2] came to 100%.

For the compound `COc1cc2c(Oc3cc4ccccc4nc3C)ccnc2cc1OC[C@H](O)CO` [Compound r386], the inhibition at 3 µM under setting [1] is 99%.

For the compound `COc1cc2c(Oc3cc4ccccc4nc3C)ccnc2cc1OCC(CO)CO` [Compound r387], the inhibition at 3 µM under setting [1] is 99%. Also, under setting [2], the inhibition at 10 µM came out at 100%.

As for `COc1cc2c(Oc3cc4ccccc4nc3C)ccnc2cc1OCC(CO)(CO)CO` [Compound r388], the inhibition at 3 µM under setting [1] amounted to 88%. In addition, under setting [2], the inhibition at 10 µM came out at 100%.

Consider `COc1cc2c(Oc3cc4ccccc4nc3C)ccnc2cc1OCC(CO)(CO)CBr` [Compound r389], for which the inhibition at 3 µM under setting [1] amounted to 100%. For the same compound, under setting [2], the inhibition at 10 µM worked out at 100%.

With `COc1cc2c(Oc3cc4ccccc4nc3C(C)=O)ccnc2cc1O` [Compound r390], the inhibition at 3 µM under setting [1] came out at 16%. Under setting [2], the inhibition at 10 µM was 64%.

Consider `COc1cc2c(Oc3cc4ccccc4nc3C(C)=O)ccnc2cc1OCCN1CCOCC1` [Compound r391], for which the inhibition at 3 µM under setting [1] amounted to 99%. For the same compound, under setting [2], the inhibition at 10 µM turned out to be 100%.

Take `COc1cc2c(Oc3cc4ccccc4nc3C(C)=O)ccnc2cc1OCCO` [Compound r392]: the inhibition at 3 µM under setting [1] came to 93%. The inhibition at 10 µM under setting [2] worked out at 100%.

`COc1cc2c(Oc3cc4ccccc4nc3C(C)=O)ccnc2cc1OCCN1CCCC(O)C1` (stereo not shown) [Compound r393]: the inhibition at 3 µM under setting [1] was found to be 100%.

`COc1cc2c(Oc3cc4ccccc4nc3C(C)=O)ccnc2cc1OCC1CO1` (stereo not shown) [Compound r394]: the inhibition at 3 µM under setting [1] came to 83%. Moreover, the inhibition at 10 µM under setting [2] was 100%.

As to `COc1cc2c(Oc3cc4ccccc4nc3C(C)=O)ccnc2cc1OCC(O)CO` (stereo not shown) [Compound r395], the inhibition at 3 µM under setting [1] was found to be 96%. Further, the inhibition at 10 µM under setting [2] was 100%.

As for `COc1cc2c(Oc3cc4ccccc4nc3C(C)=O)ccnc2cc1OCC(CO)CO` [Compound r396], under setting [1], the inhibition at 3 µM came to 96%.

On to `COc1cc2c(Oc3cc4cccnc4nc3C)ccnc2cc1OCc1ccccc1` [Compound r397], for which the inhibition at 3 µM under setting [1] was 71%. Moreover, the inhibition at 10 µM under setting [2] is 100%.

On to `COc1cc2c(Oc3cc4cccnc4nc3C)ccnc2cc1OCCCl` [Compound r398], for which, under setting [1], the inhibition at 3 µM is 78%. In addition, the inhibition at 10 µM under setting [2] is 97%.

Take `COc1cc2c(Oc3cc4cccnc4nc3C)ccnc2cc1OCCN1CCCC(O)C1` (stereo not shown) [Compound r399]: the inhibition at 3 µM under setting [1] is 99%. The inhibition at 10 µM under setting [2] was determined as 100%.

Regarding `COc1cc2c(Oc3cc4cccnc4nc3C)ccnc2cc1OCCO` [Compound r400], under setting [1], the inhibition at 3 µM stood at 82%. Further, under setting [2], the inhibition at 10 µM is 100%.

Turning to `COc1cc2c(Oc3cc4cccnc4nc3C)ccnc2cc1OCC1CO1` (stereo not shown) [Compound r401], under setting [1], the inhibition at 3 µM amounted to 24%. Also, the inhibition at 10 µM under setting [2] amounted to 76%.

`COc1cc2c(Oc3cc4cccnc4nc3C)ccnc2cc1OCCCO` [Compound r402]: the inhibition at 3 µM under setting [1] was found to be 90%. Moreover, the inhibition at 10 µM under setting [2] was determined as 100%.

As to `COc1cc2c(Oc3cc4cccnc4nc3C)ccnc2cc1OCC(O)CO` (stereo not shown) [Compound r403], the inhibition at 3 µM under setting [1] turned out to be 27%. For the same compound, under setting [2], the inhibition at 10 µM amounted to 66%.

On to `COc1cc2c(Oc3cc4cccnc4nc3C)ccnc2cc1OCC(CO)CO` [Compound r404], for which the inhibition at 3 µM under setting [1] stood at 29%. The inhibition at 10 µM under setting [2] was 72%.
